Measurements as given in patent US5502057A, “Polysubstituted pyridines useful for treating lipoproteinanaemia and arteriosclerosis” (Bayer Aktiengesellschaft, priority 1988, dated 1996).
Where a name gives a salt, the structure may show the parent alone.

Tested on: healthy beagle dogs
Experiment: Subchronic action on blood cholesterol values of dogs (feeding experiment)
Assay type: in vivo, dog
Details: 8 mg/kg p.o. daily, after 2-week administration, cholestyramine (4 g/100 g of feed) in feed, compared with serum cholesterol before the administration period
Description: The subchronic action of the disubstituted pyridines on blood cholesterol values of dogs was tested in feeding experiments extending over several weeks. For this, the substance to be investigated was given p.o. once daily in a capsule to healthy beagle dogs together with the feed over a time period of several weeks. In addition, during the entire experimental period, i.e. before, during and after the administration period, the substance cholestyramine (4 g/100 g of feed) to be investigated was mixed with the feed as the […] sequestrant. Twice weekly, venous blood was taken from the dogs and the serum cholesterol was determined enzymatically. The serum cholesterol values during the administration period were compared with the serum cholesterol values before the administration period (controls).

## CC(C)c1nc(C(C)C)c(/C=C/C(O)CC(O)CC(=O)O)c(-c2ccc(F)cc2)c1/C=C/C(O)CC(O)CC(=O)O (stereo not shown) [Na salt of Example 8, 2,6-diisopropyl 4-(4-fluorophenyl)-3,5-di-(sodiumerythro-(E)-3,5-dihydroxy-hept-6-enoat-7-yl)-pyridine]
  Lowering of the serum cholesterol: about 22.4%
